Article PMC5962679 (Frontiers in Cellular and Infection Microbiology, 2018)
Ends that are not written are not given here.

How the values were obtained:
Test in all cases: biochemical
Format in all cases: binding
Conditions in all cases: for inhibition at 250 µM: 24 h, read-out: Binding percentage
HLA-DRB1*0401 = target: T1, HLA-DRB1*0401 (Homo sapiens, UniProt P01903+P01911, A100K/A169T/F76Y/I96L/K127E/L162R/M171V/N62H/P40V/Q125Y/R42H/S133A/S149N/S66Y/V115G/V209L/W38E)
T1 construct: homozygous lymphoblastoid B-cell lines (International Histocompatibility Working Group); host or cells: human HLA-DRB1*0401 homozygous lymphoblastoid B-cell line

HLA-DRB1*0701 = HLA-DRB1*0701 (Homo sapiens, UniProt P01903+P01911, A100R/A102G/A103Q/D57E/D86V/E43K/F76Y/K127E/L162R/M171V/P40G/Q125H/Q99D/R33Q/R42Y/R54Q/S133A/S66F/T210M/V115G/Y107V/Y59L/Y89S)
HLA-DRB1*1101 = HLA-DRB1*1101 (Homo sapiens, UniProt P01903+P01911, A100R/A169T/A87E/I96F/K41T/L162R/M171V/P40S/Q125H/Q178H/Q39Y/Q99D/R42S/S66Y/T262R/V115G/W38E)
HLA-DRB1*1302 = HLA-DRB1*1302 (Homo sapiens, UniProt P01903+P01911, A100E/A169T/K41T/L162R/M171V/P40S/Q125H/Q178H/Q39Y/Q99D/R42S/S66N/T262R/V115G/W38E/Y61H)
Chain of HLA-DRB1*1302 (P01903 26-254 limits assumed, other chains not shown): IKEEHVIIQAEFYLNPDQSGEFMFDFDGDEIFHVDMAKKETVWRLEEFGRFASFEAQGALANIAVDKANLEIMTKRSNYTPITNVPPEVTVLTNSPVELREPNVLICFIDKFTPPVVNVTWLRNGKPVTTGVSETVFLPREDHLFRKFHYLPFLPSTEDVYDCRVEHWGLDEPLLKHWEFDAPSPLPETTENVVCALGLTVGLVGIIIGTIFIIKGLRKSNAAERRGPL

Chain of HLA-DRB1*1101 (P01903 26-254 limits assumed, other chains not shown): as above

## LFYVNLFIMSSLSRK [compound 39152]
HLA-DRB1*0401
  IC50: 2.8 µM
  inhibition at 250 µM: 65.8%
HLA-DRB1*0701
  inhibition at 250 µM: 11%
HLA-DRB1*1101
  IC50: 1.9 µM
  inhibition at 250 µM: 91.8%
HLA-DRB1*1302
  IC50: 8 µM
  inhibition at 250 µM: 94.7%

## LKFIVRGNNLKFLNN [compound 39154]
HLA-DRB1*0401
  inhibition at 250 µM: 22.2%
HLA-DRB1*0701
  inhibition at 250 µM: 43.7%
HLA-DRB1*1101
  inhibition at 250 µM: 24.9%
HLA-DRB1*1302
  IC50: 6.5 µM
  inhibition at 250 µM: 90.1%

## MKLLQHIPANLLENI [compound 39153]
HLA-DRB1*0401
  IC50: 57 µM
  inhibition at 250 µM: 61.2%
HLA-DRB1*0701
  IC50: 7.5 µM
  inhibition at 250 µM: 85.4%
HLA-DRB1*1101
  IC50: 52.1 µM
  inhibition at 250 µM: 72.7%
HLA-DRB1*1302
  IC50: 10.7 µM
  inhibition at 250 µM: 91.9%

## RGPVNYHFSNYMNLD [compound 39047]
HLA-DRB1*0401
  IC50: 54.5 µM
  inhibition at 250 µM: 59.8%
HLA-DRB1*0701
  IC50: 6 µM
  inhibition at 250 µM: 90.4%
HLA-DRB1*1101
  inhibition at 250 µM: 0%
HLA-DRB1*1302
  inhibition at 250 µM: 37.8%
